Data as given in article PMC8708940, “Crossing of the Cystic Barriers of Toxoplasma gondii by the Fluorescent Coumarin Tetra-Cyclopeptide” (Molecules, 2021).

Legend:
[1] = tested on: T. gondii RH strain tachyzoite; format: cell-based, Toxoplasma gondii; details: intracellular growth of RH strain tachyzoite in HFF
Description: The parasite strains used in this study are the following: the T. gondii type I RH strain that has lost the ability to complete cyst conversion, the T. gondii type II Prugniaud (Pru) strain that is capable of robust bradyzoite differentiation, the T. gondii type II Pru-Δhxgprt-A7 strain that expresses green fluorescent protein (GFP), the Pru-Δku80 strain [36, 37], and the RH Tg hdac3 T99A strain (previously obtained in our laboratory).
(§1) All T. gondii strains were maintained by serial passage in an HFF (Human Foreskin Fibroblasts) monolayer under tachyzoite growth conditions in Dulbecco’s modified Eagle medium (DMEM; Invitrogen) supplemented with 10% (vol/vol) fetal bovine serum (FBS; Invitrogen), 4 mM glutamine, 500 U/mL penicillin, 250 µg/mL streptomycin at 37 °C and 25 mM Hepes buffer (Invitrogen) in 5% CO2.

[2] = tested on: human cells HFF; format: cell-based; details: human foreskin fibroblasts
Description: as §1

[3] = tested on: Ex vivo T. gondii cysts (PRU strain); test: Cyst and bradyzoite penetration observed by fluorescence microscopy; format: cell-based, Toxoplasma gondii; details: 37 °C, exposure time 100 ms
Description: To focus on the ability of the cyclic tetrapeptide moiety to transport compounds through the cyst wall, we began our investigation by monitoring the transport of the poorly cell-permeable fluorochrome 3 (Figure 2) by optical microscopy.
To ensure that the fluorescent compound was incorporated to the parasite cell, bradyzoites were released from treated cysts (Figure 3b).
Cysts were isolated from the brains of mice chronically infected with the Pru-Δhxgprt-A7 or the Pru strains for at least 6 weeks, either using the Percoll gradient method as described previously or directly harvesting the cysts using a 10-μL pipet for the dye experimentation in order to prevent deterioration of the cyst wall for the permeability studies.
Images were acquired with a Axioplan 2 fluorescence microscope (Carl Zeiss Microimaging, Thornwood, NY, USA) and processed with the ZEN software (Zeiss).

Compound: CCN(CC)c1ccc2cc(-n3cc(C[C@]4(C)NC(=O)[C@H](CCCCCC(=O)[C@@H](C)O)NC(=O)[C@H]5CCCN5C(=O)[C@H](Cc5ccccc5)NC4=O)nn3)c(=O)oc2c1 [compound 1]
- EC50 [1]: 43 ± 2.2 nM
- EC50 [2]: 280 ± 20 nM
- Fluorescence of isolated cysts (penetration and accumulation in the cyst) ([3]; 200 nM to 3.7 µM, 3, 22 and 96 h): increasing fluorescence was observed
- Labeling of bradyzoites released from treated cysts ([3]; 3.7 µM for 3 h, bradyzoites released from the cyst): clearly show labeling of these bradyzoites

Compound: C=CCC[C@@H]1NC(=O)[C@H]2CCCN2C(=O)[C@H](Cc2ccccc2)NC(=O)[C@](C)(Cc2cn(-c3cc4ccc(N(CC)CC)cc4oc3=O)nn2)NC1=O [compound 2]
- Fluorescent labeling of isolated cysts (cyst penetration) ([3]; isolated ex vivo cysts, 1 µM, 24 h, PBS washing): labeled them with a high intensity
